The record followed here is publication PMC7423246, “A Peptide–Lectin Fusion Strategy for Developing a Glycan Probe for Use in Various Assay Formats” (Chemosensors (Basel, Switzerland), 2019).

The experiment addresses T1, Pseudomonas fluorescens agglutinin (PFA) (Pseudomonas fluorescens, UniProt Q3KJ04).
T1 construct: gene Pfl01_0508; 14 kDa
T1 sequence (Q3KJ04 1-133): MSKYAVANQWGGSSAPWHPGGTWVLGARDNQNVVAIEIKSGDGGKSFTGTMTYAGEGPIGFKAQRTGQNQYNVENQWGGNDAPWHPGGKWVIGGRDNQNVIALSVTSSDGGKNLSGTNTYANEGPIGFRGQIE
As to the kind of experiment: competitive ELISA on immobilized gp120. As to conditions: inhibition of PFA binding to immobilized gp120, 400 nM PFA, 0-2000 mM mannose, room temperature not stated for this step. In general terms: An ELISA detects its analyte on a solid surface through an enzyme-linked reagent.

Turning to `OC[C@H]1OC(O)[C@@H](O)[C@@H](O)[C@@H]1O` (stereo partly shown) [mannose], the onset of inhibition is ~ 200 mM.
